Measurements: patent publication EP4818156A1, “SQUARIC ACID COMPOUND, PHARMACEUTICALLY ACCEPTABLE SALT OR DEUTERATED COMPOUND THEREOF, PREPARATION METHOD THEREFOR AND USE THEREOF” (Shanghai Institute of Materia Medica, Chinese Academy of …, priority 2023, dated 2025)

Test: Photostability under continuous 808 nm laser irradiation
Format: physicochemical
Settings: aqueous solution, 808 nm laser at 108 mW/cm^2, 20 minutes
Experimental: Indocyanine green (ICG), an FDA-approved near-infrared dye widely used clinically, was used as a control to evaluate the photostability of compound Ia (SQ 905). ICG was dissolved in water, and compound Ia (SQ 905) was dissolved in methanol. Over a period of 25 minutes, the methanol solution of compound Ia and the aqueous solution of ICG were continuously irradiated with an 808 nm laser at 108 mW/cm^2. During this period, the fluorescence intensity was recorded using a near-infrared II camera (MARS, Artemis Intelligent Imaging, Shanghai, China). Images were recorded every minute for the first 15 minutes, and every 5 minutes thereafter to monitor the fluorescence intensity. The fluorescence intensity of the region of interest (ROI) in the captured images was quantified using ImageJ software and compared with the initial fluorescence intensity to obtain the ratio of fluorescence intensity at each time point relative to the initial intensity. The photostability curve of compound Ia was plotted using GraphPad Prism 8.0.2 software.
Accordingly, the photostability of compound Ia was evaluated in this example. The methanol solution of compound Ia and the aqueous solution of ICG were used for photostability testing.

- decrease of fluorescence intensity after continuous irradiation: 83%
SMILES: CC1(C)C(/C=C/C=C/C=C/C=C2\N(CCCCS(=O)(=O)O)c3ccc4ccccc4c3C2(C)C)=[N+](CCCCS(=O)(=O)[O-])c2ccc3ccccc3c21 [ICG, Indocyanine green]
